Results: EP1325735A2, “Use of L-arginine derivatives as photo-protecting agents and enhancing melanic response in cosmetic compositions” (EXSYMOL S.A.M., priority 2002, dated 2003)
Square brackets hold non-standard residues; d marks the D form. Peptide text beside a SMILES is read from it. ξ: configuration not given here. ξM = CSCCC(N)C(=O)O

What was measured:
[1] = Hydroxyl radical OH• scavenging, deoxyribose protection test (Halliwell method); settings: rate constant of S on OH•; mean (± SD) of 3 independent experiments
From the text: Le test, réalisé selon la méthode décrite par B. Halliwell et coll. […] Le pouvoir protecteur est déduit de la comparaison des cinétiques de réaction, exprimées par une constante de vitesse de S sur OH• (piégeage de OH•).
Les constantes de vitesse correspondent à la valeur moyenne (± D.S.) calculée à partir de 3 expériences indépendantes

[2] = system: co-culture in vitro de mélanocytes et de kératinocytes; experiment: In vitro melanocyte/keratinocyte co-culture model of the "mélano-épidermique" unit: melanic response after UV; format: cell-based; parameters: unit not given here; settings: for réponse mélanique: co-culture + MdC "ARG-free" irradiée par UVB: ARG-free medium (insufficient physiological arginine); for réponse mélanique: co-culture + MdC "ARG-free" irradiée par UVB / réponse mélanique: co-culture + MdC "ARG = 84mg/L" irradiée par UVB: UVB irradiated; for réponse mélanique: co-culture + MdC "ARG = 84mg/L" irradiée par UVB / réponse mélanique: co-culture + MdC "ARG = 84mg/L" sans irradiation: standard medium with supra-physiological arginine; for réponse mélanique: co-culture + MdC "ARG = 84mg/L" sans irradiation: no irradiation
From the text: Test 2 : démonstration de l'effet des dérivés d'arginine sur l'unité "mélano-épidermique" et la réponse mélanique
Nous avons mis au point un modèle expérimental reproduisant l'unité "mélano-épidermique", et qui permet de mettre en évidence les effets d'un apport exogène de dérivés d'arginine sur la réponse mélanique à la suite de rayonnements U.V. (effet direct sur les mélanocytes et indirect via la "communication cellulaire" entre kératinocytes et mélanocytes). Il s'agit d'un modèle de co-culture in vitro de mélanocytes et de kératinocytes (voir représentation schématique du modèle), possédant un milieu de culture (MdC) particulier. [drawing]
Le fond poreux de la chambre supérieure permet le passage, d'un compartiment à l'autre, des facteurs endogènes sécrétés par les cellules (NO) et la substance (S).

Structure (SMILES) | constante de vitesse de piégeage [1] | réponse mélanique: co-culture + MdC "ARG-free" irradiée par UVB ([2]; substance 0,12 mM) | réponse mélanique: co-culture + MdC "ARG = 84mg/L" irradiée par UVB ([2]; substance 0,12 mM) | réponse mélanique: co-culture + MdC "ARG = 84mg/L" sans irradiation ([2]; substance 0,12 mM) | réponse mélanique: co-culture + MdC "ARG-free" irradiée par UVB ([2]; substance 0,24 mM) | réponse mélanique: co-culture + MdC "ARG = 84mg/L" irradiée par UVB ([2]; substance 0,24 mM) | réponse mélanique: co-culture + MdC "ARG = 84mg/L" sans irradiation ([2]; substance 0,24 mM) | réponse mélanique: co-culture + MdC "ARG-free" irradiée par UVB ([2]; substance 0,48 mM) | réponse mélanique: co-culture + MdC "ARG = 84mg/L" irradiée par UVB ([2]; substance 0,48 mM) | réponse mélanique: co-culture + MdC "ARG = 84mg/L" sans irradiation ([2]; substance 0,48 mM)
CCOC(=O)[C@H](CCCNC(=N)N)NC(C)=O [NAc-L-ARG-OEt, N-acetyl-L-arginine ethyl ester] | 5,2 (±0,2)x10^9 M^-1.S^-1 | 30,7 | 39,5 | 23,1 | 37,5 | 42,6 | 20,9 | 43,8 | 38,4 | 24,4
CCOC(=O)[C@H](CCCNC(=N)N)NC(=O)[C@H](Cc1c[nH]cn1)NC(C)=O [NAc-L-HIS-L-ARG-OEt, N-acetyl-(D ou L)-histidyl-L-arginine ethyl ester] (Ac-His-Arg-OEt) | 9,0 (±0,2)x10^9 M^-1.S^-1 | 38,8 | 41,6 | 22,7 | 41,0 | 36,2 | 22,5 | 42,5 | 40,7 | 18,8
CCOC(=O)[C@H](CCCNC(=N)N)NC(=O)[C@H](Cc1ccc(O)cc1)NC(C)=O [NAc-L-TYR-L-ARG-OEt, N-acetyl-L-tyrosyl-L-arginine ethyl ester] | 8,1 (±0,3)x10^9 M^-1.S^-1 |  |  |  |  |  |  |  |  | 
CCOC(=O)[C@H](CCCNC(=N)N)NC(=O)C(CCSC)NC(C)=O (stereo partly drawn) [NAc-(D,L)-MET-L-ARG-OEt, N-acetyl-(D ou L)methionyl-L-arginine ethyl ester] (Ac-[ξM]-Arg-OEt) | 0,7 (±0,2)x10^10 M^-1.S^-1 |  |  |  |  |  |  |  |  | 
N=C(N)NCCC[C@H](N)C(=O)O [L-arginine] | 1,5 (±0,2)x10^9 M^-1.S^-1 |  |  |  |  |  |  |  |  | 
N[C@@H](Cc1c[nH]cn1)C(=O)O [L-histidine, reference compound] | 2,5 (±0,2)x10^9 M^-1.S^-1 |  |  |  |  |  |  |  |  | 
CCOC(=O)[C@@H](NC(=O)[C@H](CCCNC(=N)N)NC(C)=O)[C@@H](C)CC [NAc-L-ARG-L-ILE-OEt, N-acetyl-L-arginyl-(D ou L)-isoleucine ethyl ester] (Ac-Arg-Ile-OEt) | 6,1 (±0,4)x10^9 M^-1.S^-1 |  |  |  |  |  |  |  |  | 
